Results as given in patent US11793815B2, “Oxindoles and methods of use thereof” (ALIGOS THERAPEUTICS, INC., priority 2020, dated 2023).

The molecules below were run against T1, human thyroid receptor beta ligand-binding domain (LBD) (Homo sapiens, UniProt P10828) (assay: THR Biochemical Assay (Assay 1): TR-FRET thyroid receptor beta coactivator assay). Conditions: GST-tagged thyroid receptor beta LBD 1 nM, fluorescein SRC2-2 coactivator peptide 200 nM, 1 hr at rt, TR-FRET ratio 520:495; read-out: Assay 1 (EC50, THR-beta agonist).
T1 construct: Thyroid receptor beta LBD was added to the plate at a final concentration of 1 nM; purchased Invitrogen
T1 sequence (P10828 217-461 limits assumed): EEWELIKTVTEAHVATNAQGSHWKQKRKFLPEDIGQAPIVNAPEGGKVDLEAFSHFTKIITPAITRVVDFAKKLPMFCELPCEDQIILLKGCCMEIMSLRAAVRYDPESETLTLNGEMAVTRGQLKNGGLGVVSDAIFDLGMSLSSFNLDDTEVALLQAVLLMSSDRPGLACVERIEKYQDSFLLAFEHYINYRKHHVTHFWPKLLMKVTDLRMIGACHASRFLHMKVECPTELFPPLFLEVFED
Text: THR Biochemical Assay (Assay 1)
The TR-FRET thyroid receptor beta coactivator assay was used with slight, optimized modifications of the manufacturer's protocol (Invitrogen). The assay uses a terbium-labeled anti-GST antibody, a glutathione-S-transferase (GST) tagged human thyroid receptor, beta or alpha, ligand-binding domain (LBD), and a fluorescein labeled SRC2-2 coactivator peptide. The antibody interacts with the LBD, where the agonist also binds, resulting in increased affinity for the SRC2-2 coactivator peptide causing energy transfer […] the acceptor fluorophore and a FRET emission shift from 495 to 520 nm. The energy transfer was detected as an increase in the fluorescence emission of the fluorescein acceptor, and a decrease in the fluorescence emission of the terbium donor. The assay was performed in a 384-well black plate in a final volume of 20 μL. Serial dilution of various test agonists was performed in DMSO (1% final DMSO concentration) and added to the test plate. Thyroid receptor beta LBD was added to the plate at a final concentration of 1 nM, followed by the mixture of the fluorescein labeled SRC2-2 coactivator peptide, and the terbium-labeled anti-GST antibody at final concentrations of 200 nM and 2 nM respectively. The assay was incubated for 1 hr at rt protected from light. The TR-FRET was then measured on a Victor multilabel reader (Perkin Elmer) using an excitation wavelength of 340 nm with emission filters of 495 nm and 520 nm. The assay was quantified by expressing a ratio (520:495) of the intensities, and the resulting activation curves; EC50 values were generated using a sigmoidal dose response (variable slope) equation in GraphPad™ Prism 8.0.

SMILES | EC50 [nM]
Cc1cc(NC(=O)c2noc(=O)[nH]2)cc(C)c1Oc1ccc2c(c1)C1(CCC1)C(=O)N2 [Compound 25, N-(3,5-dimethyl-4-((2′-oxospiro[cyclobutane-1,3′-indolin]-5′-yl)oxy)phenyl)-5-oxo-4,5-dihydro-1,2,4-oxadiazole-3-carboxamide] | < 50
CN1C(=O)C2(CC2)c2cc(Oc3c(Cl)cc(-n4nc(N)c(=O)[nH]c4=O)cc3Cl)ccc21 [Compound 26, 6-amino-2-(3,5-dichloro-4-((1′-methyl-2′-oxospiro[cyclopropane-1,3′-indolin]-5′-yl)oxy)phenyl)-1,2,4-triazine-3,5(2H,4H)-dione] | > 25000
Cc1cc(Oc2c(Cl)cc(-n3nc(N)c(=O)[nH]c3=O)cc2Cl)cc2c1NC(=O)C21CCC1 [Compound 27, 6-amino-2-(3,5-dichloro-4-((7′-methyl-2′-oxospiro[cyclobutane-1,3′-indolin]-5′-yl)oxy)phenyl)-1,2,4-triazine-3,5(2H,4H)-dione] | < 50
Cc1cc(-n2nc(N)c(=O)[nH]c2=O)cc(C)c1Oc1ccc2c(c1)C1(CCCC1)C(=O)N2 [Compound 28, 6-amino-2-(3,5-dimethyl-4-((2′-oxospiro[cyclopentane-1,3′-indolin]-5′-yl)oxy)phenyl)-1,2,4-triazine-3,5(2H,4H)-dione] | < 50
O=C(Nc1cc(Cl)c(Oc2ccc3c(c2Cl)C2(CC2)C(=O)N3)c(Cl)c1)c1noc(=O)[nH]1 [Compound 29, N-(3,5-dichloro-4-((4′-chloro-2′-oxospiro[cyclopropane-1,3′-indolin]-5′-yl)oxy)phenyl)-5-oxo-4,5-dihydro-1,2,4-oxadiazole-3-carboxamide] | < 50
Nc1nn(-c2cc(Cl)c(Oc3ccc4c(c3Cl)C3(CC3)C(=O)N4)c(Cl)c2)c(=O)[nH]c1=O [Compound 30, 6-amino-2-(3,5-dichloro-4-((4′-chloro-2′-oxospiro[cyclopropane-1,3′-indolin]-5′-yl)oxy)phenyl)-1,2,4-triazine-3,5(2H,4H)-dione] | < 50
O=C1Nc2ccc(Oc3c(Cl)cc(-n4ncc(=O)[nH]c4=O)cc3Cl)c(Cl)c2C12CC2 [Compound 31, 2-(3,5-dichloro-4-((4′-chloro-2′-oxospiro[cyclopropane-1,3′-indolin]-5′-yl)oxy)phenyl)-1,2,4-triazine-3,5(2H,4H)-dione] | < 50
CC1CC12C(=O)Nc1ccc(Oc3c(Cl)cc(-n4nc(N)c(=O)[nH]c4=O)cc3Cl)cc12 (stereo not drawn) [Compound 33, 6-amino-2-(3,5-dichloro-4-((2-methyl-2′-oxospiro[cyclopropane-1,3′-indolin]-5′-yl)oxy)phenyl)-1,2,4-triazine-3,5(2H,4H)-dione] | < 50
O=C(O)C(=O)Nc1cc(Cl)c(Oc2ccc3c(c2)C(F)(F)C(=O)N3)c(Cl)c1 [Compound 36, 2-((3,5-dichloro-4-((3,3-difluoro-2-oxoindolin-5-yl)oxy)phenyl)amino)-2-oxoacetic acid] | < 50
Cc1c(Oc2c(Cl)cc(-c3nn(C)c(=O)[nH]c3=O)cc2Cl)ccc2c1C1(CC1)C(=O)N2 [Compound 37, 6-(3,5-dichloro-4-((4′-methyl-2′-oxospiro[cyclopropane-1,3′-indolin]-5′-yl)oxy)phenyl)-2-methyl-1,2,4-triazine-3,5(2H,4H)-dione] | < 50
Cc1c(Oc2c(Cl)cc(-n3nc(N)c(=O)[nH]c3=O)cc2Cl)ccc2c1C1(CC1)C(=O)N2 [Compound 38, 6-amino-2-(3,5-dichloro-4-((4′-methyl-2′-oxospiro[cyclopropane-1,3′-indolin]-5′-yl)oxy)phenyl)-1,2,4-triazine-3,5(2H,4H)-dione] | < 50
Cc1cc(NC(=O)c2noc(=O)[nH]2)cc(C)c1Oc1ccc2c(c1)C1(CC1)C(=O)N2 [Compound 39, N-(3,5-dimethyl-4-((2′-oxospiro[cyclopropane-1,3′-indolin]-5′-yl)oxy)phenyl)-5-oxo-4,5-dihydro-1,2,4-oxadiazole-3-carboxamide] | < 50
O=C(Nc1cc(Cl)c(Oc2ccc3c(c2F)C2(CC2)C(=O)N3)c(Cl)c1)c1noc(=O)[nH]1 [Compound 40, N-(3,5-dichloro-4-((4′-fluoro-2′-oxospiro[cyclopropane-1,3′-indolin]-5′-yl)oxy)phenyl)-5-oxo-4,5-dihydro-1,2,4-oxadiazole-3-carboxamide] | < 50
Nc1nn(-c2cc(Cl)c(Oc3ccc4c(c3F)C3(CC3)C(=O)N4)c(Cl)c2)c(=O)[nH]c1=O [Compound 41, 6-amino-2-(3,5-dichloro-4-((4′-fluoro-2′-oxospiro[cyclopropane-1,3′-indolin]-5′-yl)oxy)phenyl)-1,2,4-triazine-3,5(2H,4H)-dione] | < 50
Cn1nc(-c2cc(Cl)c(Oc3ccc4c(c3F)C3(CC3)C(=O)N4)c(Cl)c2)c(=O)[nH]c1=O [Compound 42, 6-(3,5-dichloro-4-((4′-fluoro-2′-oxospiro[cyclopropane-1,3′-indolin]-5′-yl)oxy)phenyl)-2-methyl-1,2,4-triazine-3,5(2H,4H)-dione] | < 50
Cn1nc(-c2cc(Cl)c(Oc3ccc4c(c3Cl)C3(CC3)C(=O)N4)c(Cl)c2)c(=O)[nH]c1=O [Compound 43, 6-(3,5-dichloro-4-((4′-chloro-2′-oxospiro[cyclopropane-1,3′-indolin]-5′-yl)oxy)phenyl)-2-methyl-1,2,4-triazine-3,5(2H,4H)-dione] | < 50
O=C(Nc1cc(Cl)c(Oc2ccc3c(c2)C2(CC2)C(=O)N3)c(C(F)(F)F)c1)c1noc(=O)[nH]1 [Compound 44, N-(3-chloro-4-((2′-oxospiro[cyclopropane-1,3′-indolin]-5′-yl)oxy)-5-(trifluoromethyl)phenyl)-5-oxo-4,5-dihydro-1,2,4-oxadiazole-3-carboxamide] | < 50
Nc1nn(-c2cc(Cl)c(Oc3cnc4c(c3)C3(CC3)C(=O)N4)c(Cl)c2)c(=O)[nH]c1=O [Compound 45, 6-amino-2-(3,5-dichloro-4-((2′-oxo-1′,2′-dihydrospiro[cyclopropane-1,3′-pyrrolo[2,3-b]pyridin]-5′-yl)oxy)phenyl)-1,2,4-triazine-3,5(2H,4H)-dione] | 250 to 1000
